Reference: patent US20080103158A1, “METHODS FOR TREATING DELAYING THE PROGRESSION OF ALZHEIMER'S DISEASE WITH HETEROCYCLIC COMPOUNDS” (ZENYAKU KOGYO KABUSHIKI KAISHA, priority 2006, published 2008)

`CC1=CC=CN2C1=NC(=O)C2(Cc1ccncc1)Cc1ccncc1` [Compound 16, 8-methyl-3,3-bis(4-pyridylmethyl)imidazo[1,2-a]pyridin-2(3H)-one] gave a melting point of 228 to 230 °C.
In the case of `C=CCC1(CC=C)C(=O)N=C2c3ccccc3C=CN21` [Compound 68, 3,3-diallylimidazo[2,1-a]isoquinolin-2(3H)-one], the melting point was 108 to 110 °C.
For `O=C1N=C2C(OCC3CC3)=CC=CN2C1(Cc1ccccc1)Cc1ccccc1` [Compound 4, 3,3-dibenzyl-8-cyclopropylmethyloxy-imidazo[1,2-a]pyridin-2(3H)-one], the melting point was 236 to 237 °C.
For `O=C1N=C2C(OC3CCCC3)=CC=CN2C1(Cc1ccccc1)Cc1ccccc1` [Compound 12, 3,3-dibenzyl-8-cyclopentyloxyimidazo[1,2-a]pyridin-2(3H)-one], the melting point was 268 to 269 °C.
For `CCCC1(CCC)C(=O)N=C2C=CC=CN21` [Compound 29, 3,3-dipropylimidazo[1,2-a]pyridin-2(3H)-one], the melting point was 73 to 75 °C.
With `O=C1N=C2C=CC=CN2C12Cc1cc3nsnc3cc1C2` [Compound 61, spiro[imidazo[1,2-a]pyridin-2(3H)-one-3,2′-((1,2,5-thiadiazo)[4,5-c]indan)]] the melting point was 86 to 88 °C.
`CC1(C)C(=O)N=C2C=CC=CN21` [Compound 33, 3,3-dimethylimidazo[1,2-a]pyridin-2(3H)-one] showed a melting point of 200 to 202 °C.
For `CC(C)OC1=CC=CN2C1=NC(=O)C2(Cc1ccccc1)Cc1ccccc1` [Compound 2, 3,3-dibenzyl-8-isopropoxyimidazo[1,2-a]pyridin-2(3H)-one], the melting point was 247 to 248 °C.
`O=C1N=C2CCCCN2C1(C1CCCCC1)C1CCCCC1` [Compound 72, 3,3-dicyclohexyl-5,6,7,8-tetrahydroimidazo[1,2-a]pyridin-2(3H)-one] showed a melting point of 218 to 220 °C.
In the case of `O=C1N=C2c3ccccc3C=CN2C12Cc1ccccc1C2` [Compound 60, spiro[imidazo[2,1-a]isoquinolin-2(3H)-one-3,2′-indan]], the melting point was 201 to 203 °C.
Molecule `Cc1ccc(CC2(Cc3ccc(C)cc3)C(=O)N=C3SC=CN32)cc1` [Compound 46, 5,5-bis(4-methylbenzyl)imidazo[2,1-b]thiazol-6(5H)-one] has a melting point of over 300 °C.
In the case of `N#Cc1cccc2c1CC1(C2)C(=O)N=C2C=CC=CN21` (centres unmarked) [Compound 59, spiro[imidazo[1,2-a]pyridin-2(3H)-one-3,2′-(4′-cyanoindan)]], the melting point was 247.7 °C (dec.).
For `CCCCC1(CCCC)C(=O)N=C2C=CC=CN21` [Compound 34, 3,3-dibutylimidazo[1,2-a]pyridin-2(3H)-one], the melting point was 100.5 to 102 °C.
In the case of `O=C1N=C2CCCCN2C12Cc1cc3ccccc3cc1C2` [Compound 76, spiro[5,6,7,8-tetrahydroimidazo[1,2-a]pyridin-2(3H)-one-3,2′-benzo[f]indan]], the melting point was 252.5 °C (dec.).
In the case of `CC(=O)NC1=CC=CN2C1=NC(=O)C2(Cc1ccccc1)Cc1ccccc1` [Compound 31, 8-acetylamino-3,3-dibenzylimidazo[1,2-a]pyridin-2(3H)-one], the melting point was 235 to 237 °C.
`O=C1N=C2C(OCC3CC3)=CC=CN2C12CC=CC2` [Compound 83, spiro[8-cyclopropylmethyloxyimidazo[1,2-a]pyridin-2(3H)-one-3,4′-(1′-cyclopentene)]] gave a melting point of 134 to 137 °C.
For `C=CCOC1=CC=CN2C1=NC(=O)C2(Cc1ccccc1)Cc1ccccc1` [Compound 6, 8-allyloxy-3,3-dibenzylimidazo[1,2-a]pyridin-2(3H)-one], the melting point was 214 to 215 °C.
In the case of `O=C1N=C2C3=C(C=CN2C12CCCC2)CCCC3` [Compound 74, spiro[7,8,9,10-tetrahydroimidazo[2,1-a]isoquinolin-2(3H)-one-3,1′-cyclopentane]], the melting point was 270.5 °C (dec.).
With `C=CCC1(CC=C)C(=O)N=C2C=CC=CN21` [Compound 24, 3,3-diallylimidazo[1,2-a]pyridin-2(3H)-one] the melting point was 64 to 66 °C.
In the case of `O=C1N=C2SC=CN2C1(Cc1cccs1)Cc1cccs1` [Compound 49, 5,5-bis(2-thienylmethyl)imidazo[2,1-b]thiazol-6(5H)-one], the melting point was 286 °C (dec.).
`O=C1N=C2C(OCc3ccccc3)=CC=CN2C12CC=CC2` [Compound 70, spiro[8-benzyloxyimidazo[1,2-a]pyridin-2(3H)-one-3,4′-(1′-cyclopentene)]] gave a melting point of 178.5 to 180.5 °C.
In the case of `CC1=CN2C(=NC(=O)C2(Cc2ccccc2)Cc2ccccc2)S1` [Compound 48, 5,5-dibenzyl-2-methylimidazo[2,1-b]thiazol-6(5H)-one], the melting point was over 300 °C.
Molecule `COc1ccc2c(c1)CC1(C2)C(=O)N=C2C=CC=CN21` (centres unmarked) [Compound 57, spiro[imidazo[1,2-a]pyridin-2(3H)-one-3,2′-(5′-methoxyindan)]] has a melting point of 150 to 152 °C.
With `O=C1N=C2SC=CN2C1(Cc1ccccc1)Cc1ccccc1` [Compound 44, 5,5-dibenzylimidazo[2,1-b]thiazol-6(5H)-one] the melting point was over 300 °C.
Work on `COc1ccc(CC2(Cc3ccc(OC)cc3)C(=O)N=C3C=CC=CN32)cc1` [Compound 20, 3,3-bis(4-methoxybenzyl)imidazo[1,2-a]pyridin-2(3H)-one] yielded a melting point of 248 to 251 °C.
`O=C1N=C2C=CC=CN2C1(Cc1ccc(F)cc1)Cc1ccc(F)cc1` [Compound 17, 3,3-bis(4-fluorobenzyl)imidazo[1,2-a]pyridin-2(3H)-one] gave a melting point of 290 to 292 °C.
Molecule `N#Cc1ccc(CC2(Cc3ccc(C#N)cc3)C(=O)N=C3SC=CN32)cc1` [Compound 47, 5,5-bis(4-cyanobenzyl)imidazo[2,1-b]thiazol-6(5H)-one] has a melting point of 264 to 267 °C.
For `O=C1N=C2C=CC=CN2C12Cc1ccc(I)cc1C2` (centres unmarked) [Compound 58, spiro[imidazo[1,2-a]pyridin-2(3H)-one-3,2′-(5′-iodoindan)]], the melting point was 167 to 171 °C.
With `C/C=C/CC1(C/C=C/C)C(=O)N=C2N=CC=CN21` [Compound 55, 3,3-di(2-butenyl)imidazo[1,2-a]pyrimidin-2(3H)-one] the melting point was 149.5 °C (dec.).
For `O=C1N=C2N=CC=CN2C1(Cc1cccs1)Cc1cccs1` [Compound 50, 3,3-bis(2-thienylmethyl)imidazo[1,2-a]pyrimidin-2(3H)-one], the melting point was 192 °C (dec.).
For `O=C1N=C2C=CC=CN2C1(Cc1ccc(O)cc1)Cc1ccc(O)cc1` [Compound 23, 3,3-bis(4-hydroxybenzyl)imidazo[1,2-a]pyridin-2(3H)-one], the melting point was 276.5 to 277.5 °C.
For `COC1=CC=CN2C1=NC(=O)C21CC=CC1` [Compound 82, spiro[8-methoxyimidazo[1,2-a]pyridin-2(3H)-one-3,4′-(1′-cyclopentene)]], the melting point was 200 to 202 °C.
Molecule `O=C1N=C2C(Cl)=CC(Cl)=CN2C1(Cc1ccccc1)Cc1ccccc1` [Compound 13, 3,3-dibenzyl-6,8-dichloroimidazo[1,2-a]pyridin-2(3H)-one] has a melting point of 260 to 261 °C.
In the case of `N#Cc1ccc(CC2(Cc3ccc(C#N)cc3)C(=O)N=C3C=CC=CN32)cc1` [Compound 22, 3,3-bis(4-cyanobenzyl)imidazo[1,2-a]pyridin-2(3H)-one], the melting point was 294 °C (dec.).
In the case of `C=CCC1(CC=C)C(=O)N=C2C(OCC3CC3)=CC=CN21` [Compound 79, 8-cyclopropylmethyloxy-3,3-diallylimidazo[1,2-a]pyridin-2(3H)-one], the melting point was 139 to 142 °C.
For `O=C1N=C2C=CC=CN2C12Cc1cc3ccccc3cc1C2` [Compound 53, spiro[imidazo[1,2-a]pyridin-2(3H)-one-3,2′-benzo[f]indan]], the melting point was 214 °C (dec.).
For `O=C1N=C2N=CC=CN2C12Cc1ccccc1C2` [Compound 63, spiro[imidazo[1,2-a]pyrimidin-2(3H)-one-3,2′-indan]], the melting point was 195.5 °C (dec.).
`O=C1N=C2C(NCc3ccccc3)=CC=CN2C1(Cc1ccccc1)Cc1ccccc1` [Compound 37, 3,3-dibenzyl-8-benzylaminoimidazo[1,2-a]pyridin-2(3H)-one] gave a melting point of 250 °C.
For `O=C1N=C2SCCN2C1(Cc1ccccc1)Cc1ccccc1` [Compound 51, 5,5-dibenzyl-2,3-dihydroimidazo[2,1-b]thiazol-6(5H)-one], the melting point was 233 to 236 °C.
`C#CCC1(CC#C)C(=O)N=C2C=CC=CN21` [Compound 35, 3,3-di(2-propinyl)imidazo[1,2-a]pyridin-2(3H)-one] showed a melting point of 172 to 175 °C.
In the case of `O=C1N=C2C=CC=CN2C12Cc1ccc3ccccc3c1C2` (centres unmarked) [Compound 65, spiro[imidazo[1,2-a]pyridin-2(3H)-one-3,2′-benzo[e]indan]], the melting point was 256 °C (dec.).
In the case of `COC1=CC=CN2C1=NC(=O)C2(Cc1ccccc1)Cc1ccccc1` [Compound 3, 3,3-dibenzyl-8-methoxyimidazo[1,2-a]pyridin-2(3H)-one], the melting point was 274 to 275 °C.
Work on `NC1=CC=CN2C1=NC(=O)C2(Cc1ccccc1)Cc1ccccc1` [Compound 39, 8-amino-3,3-dibenzylimidazo[1,2-a]pyridin-2(3H)-one] yielded a melting point of 283 to 285 °C.
`O=C1N=C2N=CC=CN2C1(Cc1ccccc1)Cc1ccccc1` [Compound 45, 3,3-dibenzylimidazo[1,2-a]pyrimidin-2(3H)-one] gave a melting point of over 300 °C.
With `O=C1N=C2C=CC=CN2C1Cc1ccccc1` (centres unmarked) [Compound 54, 3-benzylimidazo[1,2-a]pyridin-2(3H)-one] the melting point was 182 °C (dec.).
`O=C1N=C2C=CC=CN2C1(Cc1cccc(Cl)c1)Cc1cccc(Cl)c1` [Compound 19, 3,3-bis(3-chlorobenzyl)imidazo[1,2-a]pyridin-2(3H)-one] showed a melting point of 271 to 272 °C.
For `O=C1N=C2c3ccccc3C=CN2C12Cc1cc3nsnc3cc1C2` [Compound 62, spiro[imidazo[2,1-a]isoquinolin-2(3H)-one-3,2′-((1,2,5-thiadiazo)[4,5-c]indan)]], the melting point was 271.5 °C (dec.).
In the case of `O=C1N=C2C=CC=CN2C1(Cc1ccco1)Cc1ccco1` [Compound 32, 3,3-bis(2-furylmethyl)imidazo[1,2-a]pyridin-2(3H)-one], the melting point was 205 °C (dec.).
For `CC(c1ccccc1)C1(C(C)c2ccccc2)C(=O)N=C2C(OCc3ccccc3)=CC=CN21` (centres unmarked) [Compound 8, 8-benzyloxy-3,3-bis(1-phenylethyl)imidazo[1,2-a]pyridin-2(3H)-one], the melting point was 234 to 235 °C.
Molecule `C=CCC1(CC=C)C(=O)N=C2C(OCc3ccccc3)=CC=CN21` [Compound 25, 3,3-diallyl-8-benzyloxyimidazo[1,2-a]pyridin-2(3H)-one] has a melting point of 160 to 162 °C.
